Converted amounts (≈) assume the structure as drawn. Like-named read-outs stand apart in the source and are kept apart here.
Assays:
[1] = tested on: clinical isolates of S. aureus (MRSA); test: antibiotic susceptibility profiling of clinical isolates (Vitek2, EUCAST); assay type: cell-based, Staphylococcus aureus; details: for Antibiotic-resistance profile, MRSA 3: clinical isolate MRSA 3; for Antibiotic-resistance profile, MRSA 4: clinical isolate MRSA 4; for Antibiotic-resistance profile, MRSA 5: clinical isolate MRSA 5; for Antibiotic-resistance profile, MRSA 1: clinical isolate MRSA 1; for Antibiotic-resistance profile, MRSA 2: clinical isolate MRSA 2; on all read-outs here: key: R = Resistant; S = Susceptible; I = Intermediate
Text: (§1) Reference bacterial strains of Staphylococcus aureus (ATCC 25923) and Escherichia coli (ATCC 25922) were used in this study as Gram-positive and negative models, respectively. These reference strains were purchased from the American Type Culture Collection (ATCC, Manassas, VA, USA). Clinical isolates, identified by MALDI-TOF MS (Bruker Daltonik, GmbH, Bremen, Germany), were profiled for their antibiotic susceptibility by using the Vitek2 semiautomated system (bioMérieux, Craponne, France) and according to EUCAST (Version 12, 2022, http://www.eucast.org (accessed on 1 January 2022)). The bacterial cultures were routinely grown on 5% blood agar plates (Biolife Italiana S.r.l., Milan, Italy) and were freshly used in the antibacterial assays.

[2] = tested on: C. albicans ATCC 10231; test: broth microdilution antifungal assay (MIC); assay type: cell-based; details: Candida albicans, ATCC10231, 24 h, range 100–0.19 µM
Description: The reference strain of Candida albicans (ATCC 10231) was used in the present study and maintained on Sabouraud Dextrose Agar (Biolife Italiana S.r.l., Milan, Italy) before the antifungal assays.
(§2) The minimum inhibitory concentrations (MICs) were determined using the microbroth dilution method in microtiter plates according to the Clinical and Laboratory Standards Institute (CLSI) guidelines. In short, microbial inocula were prepared at 0.5 McFarland in PBS and, subsequently, bacterial suspensions were diluted 1:200 in Mueller–Hinton broth (Sigma-Aldrich, St. Louis, MO, USA), while fungal inoculum was diluted 1:20 in RPMI-1640 medium (Gibco®, ThermoFisher Scientific Inc., Waltham, MA, USA), containing glucose 2%, 0.3% levo-glutamine buffered to pH 7.0 with 0.165 M 3-(N-morpholino)propanesulfonic acid (MOPS). A total of 100 µL of these microbial suspensions was introduced into a 96-well microplate and incubated with 100 µL of the compounds, two-fold serially diluted in the range of 100–0.19 µM. Positive controls (microbial suspensions in regular media), negative controls (only compounds), solvent controls (microbial suspensions incubated with DMSO dilutions), and the reference drug controls were included in the tests. The plate was incubated at 37 °C for 24 h, and subsequently the optical density at 630 nm (OD630nm) was spectrophotometrically measured. Experiments were performed in triplicate with three biological replicates. In addition to MIC, IC50 values were measured for the active compounds. The values, corresponding to the concentration of the compound giving rise to an inhibition of growth of 50%, were obtained by interpolation on dose–response curves generated by plotting the percentages of growth inhibition, relative to the positive control (set to 100% of growth), as a function of the tested concentrations (on a logarithm scale). Statistical analysis was carried out by using GraphPad Prism version 9.4.1 for Windows (GraphPad Software, San Diego, CA, USA, www.graphpad.com).

[3] = tested on: E. coli ATCC 25923; test: broth microdilution antimicrobial assay (MIC); assay type: cell-based; details: Escherichia coli, ATCC25923, 24 h, range 100–0.19 µM
[4] = tested on: S. aureus ATCC 25923; test: broth microdilution antimicrobial assay (MIC, IC50); assay type: cell-based; details: Staphylococcus aureus, ATCC25923; for MIC: broth microdilution, 24 h, range 100–0.19 µM; for IC50: S. aureus ATCC 25923, 24 h, OD630, mean value with standard deviation, read-out: IC50 ATCC 25923
Text: as §1, §2

[5] = cell viability and proliferation assay (CCK-8/WST8); assay type: cell-based; details: human, WS1 cells (human-derived fibroblasts, ATCC CRL-1502), mean value with standard deviation
Description: WS1 cells (ATCC CRL-1502) were selected as a model system to investigate the effect of PTZ-quinoline hybrid compounds on human-derived fibroblasts. Briefly, cells were cultured in DMEM-High glucose supplemented with 10% fetal bovine serum (FBS) (Carlo Erba Reagents, Milan, Italy), 100 U/mL penicillin, and 100 µg/mL streptomycin at 37 °C with 5% CO2. For experiments, cells were seeded into 96-well plates at 0.7 × 10^4 cells/well, and incubated at 37 °C for 24 h. […] Cell viability was assessed by a WST8-based assay according to the manufacturer’s instructions (CCK-8, Cell Counting Kit-8, Dojindo Molecular Technologies, Rockville, MD, USA). After 48 h of incubation, culture medium was removed from each well, the monolayer was washed with PBS, and 100 µL of fresh medium containing 10 µL of CCK-8 solution was added. Following a 2 h incubation at 37 °C, the OD450nm was read, and data were expressed as the percentage of cell viability relative to the untreated controls. The CC50 was obtained on the corresponding dose–response curves generated as previously reported for IC50 values. Experiments were carried out in triplicate in three biological replicates.

[6] = tested on: P. falciparum CQ-resistant (CQ-R) W2 strain; test: antiplasmodial drug susceptibility assay (pLDH), CQ-resistant strain; assay type: cell-based; details: Plasmodium falciparum, read-out: IC50 W2 (CQ-R)
Description: (§3) P. falciparum cultures were carried out according to Trager and Jensen with slight modifications. The CQ-sensitive strain D10 and the CQ-resistant strain W2 were maintained at 5% hematocrit (human A-positive erythrocytes) in RPMI 1640 medium (EuroClone S.p.A, Milan, Italy) with the addition of 1% AlbuMax (Invitrogen, San Diego, California, USA), 0.01% hypoxanthine, 20 mM Hepes, and 2 mM glutamine at 37 °C in a standard gas mixture (1% O2, 5% CO2, and 94% N2). […] Drugs were placed in 96-well flat-bottomed microplates, and serial dilutions were made. Asynchronous cultures with parasitaemia of 1–1.5% and 1% final hematocrit were aliquoted into the plates and incubated for 72 h at 37 °C. Parasite growth was determined spectrophotometrically (OD650nm) by measuring the activity of the parasite lactate dehydrogenase (pLDH), as described in a modified version of Makler’s method in control- and drug-treated cultures. The antiplasmodial activity is expressed as 50% inhibitory concentrations (IC50); each IC50 value is the mean ± standard deviation of at least three separate experiments performed in duplicate.

[7] = tested on: P. falciparum CQ-sensitive (CQ-S) D10 strain; test: antiplasmodial drug susceptibility assay (pLDH), CQ-sensitive strain; assay type: cell-based; details: Plasmodium falciparum, read-out: IC50 D10 (CQ-S)
Description: as §3

[8] = P. falciparum W2, 72 h, pLDH, mean value with standard deviation
[9] = P. falciparum D10, 72 h, pLDH, mean value with standard deviation

Compound | Antibiotic-resistance profile, MRSA 3 [1] | Antibiotic-resistance profile, MRSA 4 [1] | Antibiotic-resistance profile, MRSA 5 [1] | MIC [2] [µM] | MIC [3] [µM] | MIC [4] [µM] | CC50 at 48 h [5] [µM] | Antibiotic-resistance profile, MRSA 1 [1] | Antibiotic-resistance profile, MRSA 2 [1] | further results
CC[C@H]1OC(=O)[C@H](C)[C@@H](O[C@H]2C[C@@](C)(OC)[C@@H](O)[C@H](C)O2)[C@H](C)[C@@H](O[C@@H]2O[C@H](C)C[C@H](N(C)C)[C@H]2O)[C@](C)(O)C[C@@H](C)C(=O)[C@H](C)[C@@H](O)[C@]1(C)O [E, Erythromycin] | R | S | S |  |  |  |  |  |  | 
OC(Cn1cncn1)(Cn1cncn1)c1ccc(F)cc1F [FLC, Fluconazole, reference compound] |  |  |  | 0.82 (≈ 0.251 µg/mL) |  |  |  |  |  | 
Clc1ccc2c(N3CCN(CCCCN4c5ccccc5Sc5ccccc54)CC3)ccnc2c1 [Compound 2, 10-(4-(4-(7-chloroquinolin-4-yl)piperazin-1-yl)butyl)-10H-phenothiazine] |  |  |  | > 100 | > 100 | > 100 | > 100 |  |  | 
CNC(C)C1CCC(N)C(OC2C(N)CC(N)C(OC3OCC(C)(O)C(NC)C3O)C2O)O1 (centres unmarked) [GEN, gentamicin] | S | S | S |  | 1.03 (≈ 0.492 µg/mL) | 6.6 (≈ 3.15 µg/mL) |  | S | S | IC50 [4]: 4 ± 0.05 µM
Cc1onc(-c2ccccc2)c1C(=O)N[C@@H]1C(=O)N2[C@@H]1SC(C)(C)[C@@H]2C(=O)O [OX, Oxacillin] | R | R | R |  |  |  |  | R | R | 
Teicoplanin [TEC] | S | S | S |  |  |  |  | S | S | 
CCC[C@@H]1C[C@@H](C(=O)N[C@@H]([C@H]2O[C@H](SC)[C@H](O)[C@@H](O)[C@H]2O)[C@H](C)Cl)N(C)C1 [CM, Clindamicyn] | R | S | S |  |  |  |  |  |  | 
Clc1ccc2c(c1)N(Cc1cn(CCCCCNc3ccnc4cc(Cl)ccc34)nn1)c1ccccc1S2 [Compound 6b, 7-chloro-N-(5-(4-((2-chloro-10H-phenothiazin-10-yl)methyl)-1H-1,2,3-triazol-1-yl)pentyl)quinolin-4-amine] |  |  |  | > 100 | > 100 | 50 (≈ 28.1 µg/mL) | 34.3 ± 0.52 |  |  | IC50 [4]: 25.1 ± 1.76 µM; IC50 [6, 8]: 0.184 ± 0.093 µM; IC50 [7, 9]: 0.602 ± 0.314 µM
Clc1ccc2c(-n3cc(CN4c5ccccc5Sc5ccccc54)nn3)ccnc2c1 [Compound 7, 10-((1-(7-chloroquinolin-4-yl)-1H-1,2,3-triazol-4-yl)methyl)-10H-phenothiazine] |  |  |  | > 100 | > 100 | > 100 | > 100 |  |  | 
CN(C)[C@@H]1C(O)=C(C(N)=O)C(=O)[C@@]2(O)C(O)=C3C(=O)c4c(O)cccc4[C@@](C)(O)[C@H]3C[C@@H]12 [TE, Tetracycline] | S | S | S |  |  |  |  | S | S | 
Clc1ccc2c(N3CCN(CCCN4c5ccccc5Sc5ccccc54)CC3)ccnc2c1 [Compound 1, 10-(3-(4-(7-chloroquinolin-4-yl)piperazin-1-yl)propyl)-10H-phenothiazine] |  |  |  | > 100 | > 100 | > 100 | > 100 |  |  | IC50 [6, 8]: 2.32 ± 1.05 µM; IC50 [7, 9]: 2.52 ± 0.84 µM
Clc1ccc2c(N3CCN(CCCn4cc(CN5c6ccccc6Sc6ccccc65)nn4)CC3)ccnc2c1 [Compound 8, 10-((1-(3-(4-(7-chloroquinolin-4-yl)piperazin-1-yl)propyl)-1H-1,2,3-triazol-4-yl)methyl)-10H-phenothiazine] |  |  |  | > 100 | > 100 | > 100 | > 100 |  |  | IC50 [6, 8]: 2.17 ± 0.243 µM; IC50 [7, 9]: 12.6 ± 0.241 µM
C[C@H]1COc2c(N3CCN(C)CC3)c(F)cc3c(=O)c(C(=O)O)cn1c23 [LVX, Levofloxacin] | R | R | R |  |  |  |  | R | R | 
CCN(CC)CCCC(C)Nc1ccnc2cc(Cl)ccc12 (centres unmarked) [CQ, chloroquine, reference compound] |  |  |  |  |  |  |  |  |  | IC50 ([6]; W2, 72 h): 0.42 ± 0.103 µM; IC50 ([7]; D10, 72 h): 0.025 ± 0.007 µM
CN[C@H](CC(C)C)C(=O)N[C@H]1C(=O)N[C@@H](CC(N)=O)C(=O)N[C@H]2C(=O)N[C@H]3C(=O)N[C@H](C(=O)N[C@H](C(=O)O)c4cc(O)cc(O)c4-c4cc3ccc4O)[C@H](O)c3ccc(c(Cl)c3)Oc3cc2cc(c3O[C@@H]2O[C@H](CO)[C@@H](O)[C@H](O)[C@H]2O[C@H]2C[C@](C)(N)[C@H](O)[C@H](C)O2)Oc2ccc(cc2Cl)[C@H]1O [VA, Vancomycin] | S | S | S |  |  |  |  | S | S | 
Penicillin | R | R | R |  |  |  |  | R | R | 
Clc1ccc2c(N3CCN(CCCCCN4c5ccccc5Sc5ccccc54)CC3)ccnc2c1 [Compound 3, 10-(5-(4-(7-chloroquinolin-4-yl)piperazin-1-yl)pentyl)-10H-phenothiazine] |  |  |  | > 100 | > 100 | > 100 | > 100 |  |  | IC50 [6, 8]: 0.99 ± 0.245 µM; IC50 [7, 9]: 2.34 ± 0.012 µM
CC1(C)S[C@@H]2[C@H](NC(=O)[C@H](N)c3ccccc3)C(=O)N2[C@H]1C(=O)O [AMP, ampicillin, reference compound] |  |  |  |  | 67.3 (≈ 23.5 µg/mL) | 4.2 (≈ 1.47 µg/mL) |  |  |  | IC50 [4]: 2.59 ± 0.13 µM

From publication PMC12561106, “STOP Strategy to Inhibit P. falciparum and S. aureus Growth: Molecular Mechanism Studies on Purposely Designed Hybrids” (Antibiotics, 2025)
